Measurements published in patent US10709765B2, “Composition for inhibiting survival or growth of tubercle bacillus by adjusting polarization of macrophage, and method using same” (priority 2016, dated 2020).
Where two headings read alike, the source gives them in different places.

System: Mycobacterium tuberculosis
Format: cell-based
[1] = anti-tuberculosis drug alone, […]

| SMILES | number of intracellular Mycobacterium tuberculosis | number of intracellular Mycobacterium tuberculosis [1] |
| --- | --- | --- |
| CC[C@@H](CO)NCCN[C@@H](CC)CO [Ethambutol] | the number of Mycobacterium tuberculosis was reduced | – |
| NNC(=O)c1ccncc1 [Isoniazid] | – | the number of Mycobacterium tuberculosis was reduced |
| NC(=O)c1cnccn1 [Pyrazinamide] | – | the number of Mycobacterium tuberculosis was reduced |
